Reference: patent US7208314B2, “Compositions and methods for drug delivery using pH sensitive molecules” (priority 2002, dated 2007)
Ends that are not written are not given here.

Columns and labels:
[1] = Kinetics of conversion of dimethylmaleamic modified amines to amines at pH 5 (trinitrobenzenesulfonate); type: physicochemical
Method: Dimethyl maleamic modified poly-L-lysine (10 mg/mL) was incubated in 10 mM sodium acetate buffer pH 5. At various times, aliquots (10 μg) were removed and added to 0.5 mL of 100 mM borax solution containing 0.4 mM trinitrobenzenesulfonate. A half an hour later, the absorbance of the solution at 420 nm was measured. To determine the concentration of amines at each time point, the extinction coefficient was determine for the product of trinitrobenzenesulfonate and poly-L-lysine. Using this extinction coefficient we were able to calculate the amount of amines and maleamic groups at each time point. A plot of ln (At/A0) as a function of time was a straight line whose slope is the negative of the rate constant for the conversion of maleamic acid to amine and anhydride, where At is the concentration of maleamic acid at a time t and A0 is the initial concentration of maleamic acid. For two separate experiments we calculated rate constants of […] which correspond to half lives of roughly 10 and 4 minutes respectively.
Dimethyl maleamic modified KL3 (0.1 mg/mL) was incubated in 40 mM sodium acetate buffer pH 5 and 1 mM cetyltrimetylammonium bromide. At various times, aliquots (10 μg) were removed and added to 0.05 mL of 1 M borax solution containing 4 mM trinitrobenzenesulfonate. A half an hour later, the absorbance of the solution at 420 nm was measured. […]

[2] = tested on: cells; type: cell-based; conditions: for Relative Light Units (luciferase expression): pCIluc DNA/poly-L-lysine complex plus 40 μg modified lipid, 48 h; for Relative Light Units relative to poly-L-lysine (no lipid): value in parentheses
[3] = tested on: 3T3 mouse embryonic fibroblast cells; test: In vitro transfection with DNA-PLL-KL3 and dimethylmaleamic KL3, luciferase expression; type: cell-based
Method: To a complex of plasmid DNA pCIluc (10 μg/mL, 0.075 mM in phosphate, 2.6 μg/μL pCIluc; prepared according to Danko, I., Williams, P., Herweijer, H. Zhang, G., Latendresse, J. S., Bock, I., Wolff, J. A. Hum. Mol. Genetics 1997, 6, 1435.) and poly-L-lysine (40 μg/mL) in 0.5 mL of 5 mM HEPES pH 7.5 was added succinylated poly-L-lysine (34,000 MW, Aldrich Chemical), 2,3-dimethylmaleamic melittin and 2,3-dimethylmaleamic KL3. The DNA-poly-L-lysine-2,3-dimethylmaleamic peptide complexes were then added (200 μL) to wells containing 3T3 mouse embryonic fibroblast cells in 290 mM glucose and 5 mM HEPES buffer pH 7.5. After 1.5 h, the glucose media was replaced with Dubelco's modified Eagle Media and the cells were allowed to incubate for 48 h. The cells were then harvested and then assayed for luciferase expression as previously reported (Wolff, J. A., Malone, R. W., Williams, P., Chong, W., Acsadi, G., Jani, A. and Felgner, P. L. Direct gene transfer into mouse muscle in vivo. Science, 1465–1468, 1990.). A Lumat LB 9507 (EG&G Berthold, Bad-Wildbad, Germany) luminometer was used. The amount of transfection was reported in relative light units and is the average transfection for two separate wells of cells.

[4] = Hemolysis assay: melittin or KL3 blocked by anionic polymer or dimethylmaleic anhydride; type: cell-based; conditions: pH 7.5; 30 minutes, 37 C; read-out: Percent hemolysis
Method: The membrane-disruptive activity of the peptide melittin and subsequent blocking of activity by anionic polymers was measured using a red blood cell (RBC) hemolysis assay. RBCs were harvested by centrifuging whole blood for 4 min. They were washed three times with 100 mM dibasic sodium phosphate at the desired pH, and resuspended in the same buffer to yield the initial volume. They were diluted 10 times in the same buffer, and 200 uL of this suspension was used for each tube. This yields 10 ? 8 RBCs per tube. Each tube contained 800 uL of buffer, 200 uL of the RBC suspension, and the peptide with or without polymer. Each sample was then repeated to verify reproducibility. The tubes were incubated for 30 minutes in a 37 C water bath. They were spun for 5 min at full speed in the microcentifuge. Lysis was determined by measuring the absorbance of the supernatant at 541 nm, reflecting the amount of hemoglobin that had been released into the supernatant. Percent hemolysis was calculated assuming 100% lysis to be measured by the hemoglobin released by the red blood cells in water; controls of RBCs in buffer with no peptide were also run.

[5] = tested on: red blood cells; test: Blood lysis experiment on melittin conjugated to microspheres via ketal; type: cell-based
Method: The microspheres were taken up in H2O (500 μL) and partitioned into five 100 μL samples. Four of the samples were diluted to 1000 μL with sodium phosphate buffer (100 mM) at pH 7.5, 6.0, 5.5, and 5.0. Samples were held at 37° C., spun down, and 150 μL aliquots taken at 30 min, 60 min, 90 min, and 16 hrs. A portion of each sample (100 μL) was diluted with sodium phosphate buffer (400 μL, pH 7.5) and added to red blood cells (100 μL, pH 7.5). Red blood cell lysis was measured after 10 min by measuring the absorbance at 541 nm. A control sample was also measured in which 100% of the red blood cells had been lysed with melittin alone.
The fifth 100 μL sample was further divided into 25 μL samples, three of which were diluted to 250 μL with sodium phosphate buffer (100 mM) at pH 7.5, 6.0, and 5.0. The samples were held at 37° C. for 30 min, spun down and the supernatant removed, and resuspended in 2.5 M NaCl solution (50 μL) and mixed. After 10 min the microspheres were spun down and the supernatant removed. The samples were added to red blood cells (500 μL, 100 mM) and the absorbance was measured at 541 nm.

[6] = tested on: HELA cells; test: Endosome disruption assay (FITC-dextran, propidium iodide); type: cell-based; conditions: 50 μg
Method: HeLa cells were plated in 6-well tissue culture dishes containing microscope slide coverslips and grown in Delbecco's Modified Eagle's Medium (DMEM)+10% fetal calf serum+penn/strep for 24–48 hours until 30–60% confluent. […] After 25 min, media containing FITC-dextran±melittin was removed, the cells were washed twice with 1 ml 37° C. DMEM lacking FITC-dextran and melittin, and cells were incubated for an additional 35 min at 37° C. in 1 ml fresh DMEM. In order to assess possible cell lysis caused by melittin, propidium iodide was added for the final 5 min of incubation. […] However, if the plasma membrane has been damaged, propidium iodide enters the cell where it will brightly stain the nucleus. To process slides for analysis, cells were washed 3 times with cold phosphate buffered saline (PBS), fixed in PBS+4% formaldehyde for 20–30 min at 4° C., and washed again 3 times with cold PBS. Excess liquid was drained from coverslips which were then mounted onto glass slides. Fluorescence was then analyzed on a Zeiss LSM510 confocal microscope. FITC was excited by a 488 nm argon laser and fluorescence emission was detected by a long pass 505 nm filter. […] For cells incubated with unmodified melittin near 100% cell death was observed as determined by propidium iodide staining of nuclei and loss of cells from the sample.

[7] = 15 mM sodium acetate pH 5 buffer
Method: The absorbance of the solution at 225 nm, which is the wavelength at which enol ethers absorb (Kresge, A. J.; Sagatys, D. S.; Chen, H. L. J. Am. Chem. Soc. 1977, 99, 7228) was measured over time.
The absorbance of the solution at 225 nm was measured as a function of time.

In the case of `C/C(C(N)=O)=C(\CCC(=O)O)C(=O)O` [2-propionic-3-methylmaleamic acid], the “rate of maleamic acid cleavage compared” value [1] was “the same as that for 2,3-dimethylmaleamic acids”.

With `CCCCCCCC/C=C\CCCCCCCC(=O)OC[C@H](COP(=O)(O)OCCNC(=O)/C(C)=C(/C)C(=O)O)OC(=O)CCCCCCC/C=C\CCCCCCCC` [2,3-dimethylmaleamic-modified DOPE] the “Relative Light Units (luciferase expression)” value [2] was 243359 Relative Light Units and the “Relative Light Units relative to poly-L-lysine (no lipid)” value [2] was 40.

With KLLKLLLKLWLKLLKLLLKLL [KL3] the “Relative Light Units (luciferase expression)” value ([3]; pCIluc DNA/poly-L-lysine complex plus named additive, 48 h, average of two wells) was 261 Relative Light Units, the “Relative Light Units relative to Succinylated poly-L-lysine” value ([3]; value in parentheses) was 0.04 and the hemolysis [4] was 86%.

With `CCCCCCCC/C=C\CCCCCCCC(=O)OCC(COC(=O)/C(C)=C(/C)C(=O)O)OC(=O)CCCCCCC/C=C\CCCCCCCC` (centres unmarked) [2,3-dimethylmaleamic-modified DOG] the “Relative Light Units (luciferase expression)” value [2] was 193624 Relative Light Units and the “Relative Light Units relative to poly-L-lysine (no lipid)” value [2] was 32.

In the case of “Melittin Conjugated to Microspheres: melittin attached to carboxylic acid modified microspheres via Di-(2-methyl-4-hydroxymethyl-1,3-dioxolane)-1,4-benzene ketal”, the “A541 (red blood cell lysis)” value ([5]; 30 min pH 5.0, 37° C.) was 0.659, the “A541 (red blood cell lysis)” value ([5]; 30 min pH 5.5, 37° C.) was 0.609 and the “A541 (red blood cell lysis)” value ([5]; 30 min pH 6.0, 37° C.) was 0.326. For the same compound, the “A541 (red blood cell lysis)” value ([5]; 30 min pH 7.5, 37° C.) was 0.026, the “A541 (red blood cell lysis)” value ([5]; 60 min pH 5.0, 37° C.) was 0.730 and the “A541 (red blood cell lysis)” value ([5]; 60 min pH 5.5, 37° C.) was 0.526. The “A541 (red blood cell lysis)” value ([5]; 60 min pH 6.0, 37° C.) was 0.212, the “A541 (red blood cell lysis)” value ([5]; 60 min pH 7.5, 37° C.) was 0.027 and the “A541 (red blood cell lysis)” value ([5]; 90 min pH 5.0, 37° C.) was 0.892. For the same compound, the “A541 (red blood cell lysis)” value ([5]; 90 min pH 5.5, 37° C.) was 0.640, the “A541 (red blood cell lysis)” value ([5]; 90 min pH 6.0, 37° C.) was 0.390 and the “A541 (red blood cell lysis)” value ([5]; 90 min pH 7.5, 37° C.) was 0.036. The “A541 (red blood cell lysis)” value ([5]; 16 hrs pH 5.0, 37° C.) was 1.163, the “A541 (red blood cell lysis)” value ([5]; 16 hrs pH 5.5, 37° C.) was 0.796 and the “A541 (red blood cell lysis)” value ([5]; 16 hrs pH 6.0, 37° C.) was 0.354. The “A541 (red blood cell lysis)” value ([5]; 16 hrs pH 7.5, 37° C.) was 0.065, the “time of rapid release of modified peptide” value ([5]; all acidic pH levels tested) was under 30 min and the “release of modified peptide from the microsphere” value ([5]; pH 7.5) was “not released”. For the same compound, the “A541 (red blood cell lysis)” value ([5]; second experiment, 30 min pH 5.0 supernatant) was 0.685, the “A541 (red blood cell lysis)” value ([5]; second experiment, 30 min pH 6.0 supernatant) was 0.213 and the “A541 (red blood cell lysis)” value ([5]; second experiment, 30 min pH 7.5 supernatant) was 0.053. For the same compound, the “A541 (red blood cell lysis)” value ([5]; second experiment, pH 5.0, 2.5 M NaCl wash) was 0.101, the “A541 (red blood cell lysis)” value ([5]; second experiment, pH 6.0, 2.5 M NaCl wash) was 0.162 and the “A541 (red blood cell lysis)” value ([5]; second experiment, pH 7.5, 2.5 M NaCl wash) was 0.087.

With `CC[C@H](C)[C@H](NC(=O)CN)C(=O)NCC(=O)N[C@@H](C)C(=O)N[C@H](C(=O)N[C@@H](CC(C)C)C(=O)N[C@@H](CCCCN)C(=O)N[C@H](C(=O)N[C@@H](CC(C)C)C(=O)N[C@H](C(=O)N[C@H](C(=O)NCC(=O)N[C@@H](CC(C)C)C(=O)N1CCC[C@H]1C(=O)N[C@@H](C)C(=O)N[C@@H](CC(C)C)C(=O)N[C@H](C(=O)N[C@@H](CO)C(=O)N[C@@H](Cc1c[nH]c2ccccc12)C(=O)N[C@H](C(=O)N[C@@H](CCCCN)C(=O)N[C@@H](CCCNC(=N)N)C(=O)N[C@@H](CCCCN)C(=O)N[C@@H](CCCNC(=N)N)C(=O)N[C@@H](CCC(N)=O)C(=O)N[C@@H](CCC(N)=O)C(N)=O)[C@@H](C)CC)[C@@H](C)CC)[C@@H](C)O)[C@@H](C)O)C(C)C)C(C)C` [Melittin, reference compound] the “A541 (red blood cell lysis)” value ([5]; control, 100% lysis with melittin alone) was 1.881 and the “cell death (propidium iodide staining of nuclei and loss of cells)” value [6] was about 100%.

In the case of “glycolic acid ethoxylate(4 units) 4-tert-buty-1,4-cyclohexadiene ether”, the “rate constant of enol ether hydrolysis” value [7] was 0.0159 min⁻¹.
